# Key:
# Assay in all cases: Test B pre-/postemergence plant response
# Type in all cases: in vivo
# soybean (Glycine max) = system: soybean (Glycine max)
# How it was run: (§1)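 Visually scored on a 0 to 100 scale after 13 to 15 days in greenhouse versus controls. Treatments were preemergence on seeded loam/sand soil and postemergence on 1- to 4-leaf plants.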
# corn (Zea mays) = system: corn (Zea mays)
# How it was run: as §1
# [1] = system: cocklebur (Xanthium strumarium)
# How it was run: as §1
# [2] = system: Surinam grass (Brachiaria decumbens)
# How it was run: as §1
# [3] = system: woolly cupgrass (Eriochloa villosa)
# How it was run: as §1
# [4] = system: giant foxtail (Setaria faberii)
# How it was run: as §1
# [5] = system: velvetleaf (Abutilon theophrasti)
# How it was run: as §1
# [6] = system: large crabgrass (Digitaria sanguinalis)
# How it was run: as §1
# [7] = system: goosegrass (Eleusine indica)
# How it was run: as §1
# [8] = system: blackgrass (Alopecurus myosuroides)
# How it was run: as §1
# [9] = system: johnsongrass (Sorghum halepense)
# How it was run: as §1
# [10] = system: green foxtail (Setaria viridis)
# How it was run: as §1
# [11] = system: yellow nutsedge (Cyperus esculentus)
# How it was run: as §1
# [12] = system: morningglory (Ipomoea coccinea)
# How it was run: as §1
# [13] = system: downy bromegrass (Bromus tectorum)
# How it was run: as §1
# kochia (Kochia scoparia) = system: kochia (Kochia scoparia)
# How it was run: as §1
# wild oat (Avena fatua) = system: wild oat (Avena fatua)
# How it was run: as §1
# [14] = 62 g ai/ha, postemergence, 0 is no effect, 100 is complete control, 13 to 15 days
smiles,measurement,setting,value
"COCCn1c(-c2ccsc2)ncc(C(=O)C2=C(O)CCCC2=O)c1=O [Compound 97, 5-[(2-hydroxy-6-oxo-1-cyclohexen-1-yl)carbonyl]-3-(2-methoxyethyl)-2-(3-thienyl)-4(3H)-pyrimidinone]",Soybean plant response rating (0 to 100 scale),soybean (Glycine max); [14],80
same,plant injury at 31 g/ha,"soybean (Glycine max); Glycine max, post-emergence, 31 g ai/ha, postemergence, scale 0 to 100, 0 is no effect, 100 is complete control, read-out: Plant response rating, Soybean",70%
same,plant injury at 250 g/ha,"soybean (Glycine max); Glycine max, post-emergence, Postemergence, 250 g ai/ha, scale 0 to 100 (0 no effect, 100 complete control), read-out: Plant response rating, Soybean",100%
same,Corn plant response rating (0 to 100 scale),corn (Zea mays); [14],40
same,"Corn plant response rating (crop injury, 0 = no effect, 100 = complete kill) at 31 g/ha","corn (Zea mays); Zea mays, post-emergence, 31 g ai/ha, postemergence, scale 0 to 100, 0 is no effect, 100 is complete control",20%
same,"Corn plant response rating (crop injury, 0 = no effect, 100 = complete kill) at 125 g/ha","corn (Zea mays); Zea mays, post-emergence, Postemergence, 125 g ai/ha, visual rating after 13 to 15 days, scale 0 (no effect) to 100 (complete control)",60%
same,"Corn plant response rating (crop injury, 0 = no effect, 100 = complete kill) at 250 g/ha","corn (Zea mays); Zea mays, post-emergence, Postemergence, 250 g ai/ha, scale 0 to 100 (0 no effect, 100 complete control)",75%
same,Cocklebur plant response rating (0 to 100 scale),[1]; [14],100
same,pest or weed control at 31 g/ha,"[1]; Xanthium strumarium, post-emergence, 31 g ai/ha, postemergence, scale 0 to 100, 0 is no effect, 100 is complete control, read-out: Plant response rating, Cocklebur",95%
same,pest or weed control at 125 g/ha,"[1]; Xanthium strumarium, post-emergence, Postemergence, 125 g ai/ha, visual rating after 13 to 15 days, scale 0 (no effect) to 100 (complete control)",100%
same,pest or weed control at 250 g/ha,"[1]; Xanthium strumarium, post-emergence, Postemergence, 250 g ai/ha, scale 0 to 100 (0 no effect, 100 complete control), read-out: Plant response rating, Cocklebur",100%
same,Surinam Grass plant response rating (0 to 100 scale),[2]; [14],75
same,pest or weed control at 31 g/ha,"[2]; Urochloa decumbens, post-emergence, 31 g ai/ha, postemergence, scale 0 to 100, 0 is no effect, 100 is complete control, read-out: Plant response rating, Surinam Grass",65%
same,pest or weed control at 250 g/ha,"[2]; Urochloa decumbens, post-emergence, Postemergence, 250 g ai/ha, scale 0 to 100 (0 no effect, 100 complete control), read-out: Plant response rating, Surinam Grass",85%
same,"Cupgrass, Woolly plant response rating (0 to 100 scale)",[3]; [14],60
same,pest or weed control at 31 g/ha,"[3]; Eriochloa villosa, post-emergence, 31 g ai/ha, postemergence, scale 0 to 100, 0 is no effect, 100 is complete control, read-out: Plant response rating, Cupgrass, Woolly",55%
same,pest or weed control at 125 g/ha,"[3]; Eriochloa villosa, post-emergence, Postemergence, 125 g ai/ha, visual rating after 13 to 15 days, scale 0 (no effect) to 100 (complete control)",70%
same,pest or weed control at 250 g/ha,"[3]; Eriochloa villosa, post-emergence, Postemergence, 250 g ai/ha, scale 0 to 100 (0 no effect, 100 complete control), read-out: Plant response rating, Cupgrass, Woolly",75%
same,"Foxtail, Giant plant response rating (0 to 100 scale)",[4]; [14],75
same,pest or weed control at 31 g/ha,"[4]; Setaria faberi, post-emergence, 31 g ai/ha, postemergence, scale 0 to 100, 0 is no effect, 100 is complete control, read-out: Plant response rating, Foxtail, Giant",60%
same,pest or weed control at 250 g/ha,"[4]; Setaria faberi, post-emergence, Postemergence, 250 g ai/ha, scale 0 to 100 (0 no effect, 100 complete control), read-out: Plant response rating, Foxtail, Giant",90%
same,Velvetleaf plant response rating (0 to 100 scale),[5]; [14],100
same,pest or weed control at 31 g/ha,"[5]; Abutilon theophrasti, post-emergence, 360 h, 31 g ai/ha, postemergence, scale 0 to 100, 0 is no effect, 100 is complete control, read-out: Plant response rating, Velvetleaf",100%
same,pest or weed control at 250 g/ha,"[5]; Abutilon theophrasti, post-emergence, 360 h, Postemergence, 250 g ai/ha, scale 0 to 100 (0 no effect, 100 complete control), read-out: Plant response rating, Velvetleaf",100%
same,"Crabgrass, Large plant response rating (0 to 100 scale)",[6]; [14],80
same,pest or weed control at 31 g/ha,"[6]; Digitaria sanguinalis, post-emergence, 31 g ai/ha, postemergence, scale 0 to 100, 0 is no effect, 100 is complete control, read-out: Plant response rating, Crabgrass, Large",75%
same,pest or weed control at 125 g/ha,"[6]; Digitaria sanguinalis, post-emergence, Postemergence, 125 g ai/ha, visual rating after 13 to 15 days, scale 0 (no effect) to 100 (complete control)",85%
same,pest or weed control at 250 g/ha,"[6]; Digitaria sanguinalis, post-emergence, Postemergence, 250 g ai/ha, scale 0 to 100 (0 no effect, 100 complete control), read-out: Plant response rating, Crabgrass, Large",95%
same,Goosegrass plant response rating (0 to 100 scale),[7]; [14],70
same,pest or weed control at 31 g/ha,"[7]; Eleusine indica, post-emergence, 31 g ai/ha, postemergence, scale 0 to 100, 0 is no effect, 100 is complete control, read-out: Plant response rating, Goosegrass",60%
same,pest or weed control at 250 g/ha,"[7]; Eleusine indica, post-emergence, Postemergence, 250 g ai/ha, scale 0 to 100 (0 no effect, 100 complete control), read-out: Plant response rating, Goosegrass",98%
same,Blackgrass plant response rating (0 to 100 scale),[8]; [14],20
same,pest or weed control at 31 g/ha,"[8]; Alopecurus myosuroides, post-emergence, 360 h, 31 g ai/ha, postemergence, scale 0 to 100, 0 is no effect, 100 is complete control, read-out: Plant response rating, Blackgrass",5%
same,pest or weed control at 125 g/ha,"[8]; Alopecurus myosuroides, post-emergence, 360 h, Postemergence, 125 g ai/ha, visual rating after 13 to 15 days, scale 0 (no effect) to 100 (complete control)",30%
same,pest or weed control at 250 g/ha,"[8]; Alopecurus myosuroides, post-emergence, 360 h, Postemergence, 250 g ai/ha, scale 0 to 100 (0 no effect, 100 complete control), read-out: Plant response rating, Blackgrass",50%
same,Johnsongrass plant response rating (0 to 100 scale),[9]; [14],55
same,pest or weed control at 31 g/ha,"[9]; Sorghum halepense, post-emergence, 31 g ai/ha, postemergence, scale 0 to 100, 0 is no effect, 100 is complete control, read-out: Plant response rating, Johnsongrass",15%
same,pest or weed control at 250 g/ha,"[9]; Sorghum halepense, post-emergence, Postemergence, 250 g ai/ha, scale 0 to 100 (0 no effect, 100 complete control), read-out: Plant response rating, Johnsongrass",85%
same,"Foxtail, Green plant response rating (0 to 100 scale)",[10]; [14],85
same,pest or weed control at 31 g/ha,"[10]; Setaria viridis, post-emergence, 31 g ai/ha, postemergence, scale 0 to 100, 0 is no effect, 100 is complete control, read-out: Plant response rating, Foxtail, Green",40%
same,pest or weed control at 250 g/ha,"[10]; Setaria viridis, post-emergence, Postemergence, 250 g ai/ha, scale 0 to 100 (0 no effect, 100 complete control), read-out: Plant response rating, Foxtail, Green",95%
same,"Nutsedge, Yellow plant response rating (0 to 100 scale)",[11]; [14],75
same,pest or weed control at 31 g/ha,"[11]; Cyperus, post-emergence, 31 g ai/ha, postemergence, scale 0 to 100, 0 is no effect, 100 is complete control, read-out: Plant response rating, Nutsedge, Yellow",75%
same,pest or weed control at 250 g/ha,"[11]; Cyperus, post-emergence, Postemergence, 250 g ai/ha, scale 0 to 100 (0 no effect, 100 complete control), read-out: Plant response rating, Nutsedge, Yellow",80%
same,Morningglory plant response rating (0 to 100 scale),[12]; [14],100
same,pest or weed control at 31 g/ha,"[12]; Ipomoea, post-emergence, 31 g ai/ha, postemergence, scale 0 to 100, 0 is no effect, 100 is complete control, read-out: Plant response rating, Morningglory",100%
same,pest or weed control at 250 g/ha,"[12]; Ipomoea, post-emergence, Postemergence, 250 g ai/ha, scale 0 to 100 (0 no effect, 100 complete control), read-out: Plant response rating, Morningglory",100%
same,"Bromegrass, Downy plant response rating (0 to 100 scale)",[13]; [14],0
same,pest or weed control at 31 g/ha,"[13]; Bromus tectorum, post-emergence, 31 g ai/ha, postemergence, scale 0 to 100, 0 is no effect, 100 is complete control, read-out: Plant response rating, Bromegrass, Downy",0%
same,pest or weed control at 125 g/ha,"[13]; Bromus tectorum, post-emergence, Postemergence, 125 g ai/ha, visual rating after 13 to 15 days, scale 0 (no effect) to 100 (complete control)",5%
same,pest or weed control at 250 g/ha,"[13]; Bromus tectorum, post-emergence, Postemergence, 250 g ai/ha, scale 0 to 100 (0 no effect, 100 complete control), read-out: Plant response rating, Bromegrass, Downy",10%
same,Kochia plant response rating (0 to 100 scale),kochia (Kochia scoparia); [14],90
same,pest or weed control at 31 g/ha,"kochia (Kochia scoparia); Bassia scoparia, post-emergence, 31 g ai/ha, postemergence, scale 0 to 100, 0 is no effect, 100 is complete control, read-out: Plant response rating, Kochia",65%
same,pest or weed control at 250 g/ha,"kochia (Kochia scoparia); Bassia scoparia, post-emergence, Postemergence, 250 g ai/ha, scale 0 to 100 (0 no effect, 100 complete control), read-out: Plant response rating, Kochia",100%
same,"Oat, Wild plant response rating (0 to 100 scale)",wild oat (Avena fatua); [14],5
same,pest or weed control at 31 g/ha,"wild oat (Avena fatua); Avena fatua, post-emergence, 31 g ai/ha, postemergence, scale 0 to 100, 0 is no effect, 100 is complete control, read-out: Plant response rating, Oat, Wild",0%
same,pest or weed control at 250 g/ha,"wild oat (Avena fatua); Avena fatua, post-emergence, Postemergence, 250 g ai/ha, scale 0 to 100 (0 no effect, 100 complete control), read-out: Plant response rating, Oat, Wild",10%

# From patent US8952024B2, “Herbicidal pyrimidone derivatives” (E I du Pont de Nemours and Company, priority 2009, dated 2015)
